Results taken from patent US6147107A, “Specific inhibition of the P42/44 mitogen activated protein (map) kinase cascade sensitizes tumor cells” (priority 1998, dated 2000).
“Also recorded” adds a separate entry of the source. Where two headings read alike, the source gives them in different places.

Columns and labels:
A431 cells [1] = assay: TUNEL assay, apoptosis of A431 cells after radiation; type: cell-based, human
Description: The ability of the cells to survive was assessed using TUNEL assays 24 hours after irradiation and the results are depicted in FIG. 4.

A431 cells [2] = assay: Propidium iodide staining (necrosis/cell integrity) of A431 cells after radiation; type: cell-based, human; conditions: PD98059 + 1 Gy; data not shown
A431 cells [3] = assay: [3H]thymidine incorporation into DNA of A431 cells; type: cell-based, human; conditions: PD98059 alone, over 96 hours; not shown
[4] = test system: p42/44 MAP kinase cascade; assay: Inhibition of p42/44 MAP kinase cascade activity in A431 cells; type: cell-based, human; conditions: PD98059, 1 Gy
Description: (§1) Determination of MAPK Activity: Pelleted cells were rinsed in PBS, repelleted, and flash-frozen. Cell pellets were lysed in 25 mM Hepes, pH 7.4 containing 5 mM EGTA, 5 mM EDTA, supplemented with protease inhibitors (5 mM benzamidine, 1 mM phenylmethylsulfonylfluoride, 1 mg/ml soybean trypsin inhibitor, 40 μg/ml aprotinin, 1 μM microcystin LR) phosphatase inhibitors (0.5 mM trisodium orthovanadate, 0.5 mM tetrasodium pyrophosphate), and containing 0.056% sodium deoxycholate w/v, 1% Triton X-100 v/v, and 0.1% 2-mercaptoethanol v/v. Lysates were clarified by centrifugation at 5,000× g at 4° C. for 5 min. MAPK activity was assayed using MBP as a substrate following immunoprecipitation of p42/44 MAP kinase with protein A/agarose-conjugated antibody/antisera. Preimmune controls were also run to ensure selectivity of substrate phosphorylation. Reaction mixtures consisted of immunoprecipitated enzyme, substrate, and [γ-^32 P] ATP ([…]) in 25 mM Hepes, pH 7.4 containing 15 mM MgCl2, […], 0.01% (v/v) 2-mercaptoethanol, 1 μM […]. Reactions were initiated by the addition of substrate. MAPK reactions were terminated by transfer to p81 filter paper; filters were rinsed repeatedly in 185 mM orhtophosphoric acid, and then dehydrated in acetone. Total radioactivity in filters was determined by liquid scintillometry.

p42/44 MAP kinase = assay: MAP kinase activity in HL-60 cells (immunoprecipitation, MBP substrate); type: cell-based, human
Description: FIG. 8. […] HL-60 cells were exposed to ara-C (10 μM) in the absence or presence of aminomethoxyflavone (PD98059; 2.5 μM) for 3 hours. MAP kinase activity (p42-ERK1/p44-ERK2) was determined by in vitro assay. In each case, values reflect the mean ±SE of duplicate determinations, and are expressed as a percentage of basal activity present in untreated controls.
as §1
HL-60 cells were exposed to ara-C in the absence or presence of PD98059. Following this treatment, the cells were eveluated for MAP kinase activity, DNA strand breakage, clonogenicity potential and extent of apoptosis.

HL-60 cells [5] = assay: DNA strand breakage in HL-60 cells; type: cell-based, human; conditions: ara-C (10 μM) + PD98059 (2.5 μM), 6 hours
Description: (§2) FIGS. 9a and 9b. […] HL-60 cells were exposed to ara-C (10 μM) in the absence or presence of aminomethoxyflavone (PD98059; 2.5 μM) for 6 hours. Apoptotic DNA damage and cell death were assessed as described in Methods. […] FIG. 9b.
Quantitative Analysis of DNA Damage: The formation and release of DNA fragments and the corresponding breakage of bulk DNA were assessed by bisbenzamide spectrofluorophtometry. To measure intracellular DNA fragments, pelleted cells (4×10^6 cells/pellet in quadruplicate)were resuspended in PBS and lysed by addition of 5 mM Tris-HCl, 30 mM EGTA, 30 mM EDTA, 0.1% Triton X-100, pH 8 (yielding a final density of 10^7 cells,ml) with gentle mechanical agitation. The lysates were centrifuged at 30,000× g at 4° C. for 40 minutes. […] The pellets were discarded and the presence of non-sedimenting DNA fragments in the supernatant from the lysate and medium extracts was quantified following dilution in modified Tris-sodium EGTA buffer (3 mM NaCl, 10 mM Tris-HCl, 1 mM EGTA, pH 8) by spectrofluorophotometry in the presence of Hoechst-33258 (1 μg/ml; μex=365, λem=460). Net fluorescence was directly proportional to the presence of DNA fragments; final values were calculated relative to a highly purified calf thymus DNA calibration standard, and are expressed as ng/μg DNA recovered or released from 10^6 cells. […]

HL-60 cells [6] = assay: Apoptosis of HL-60 cells (ara-C); type: cell-based, human
Description: as §2

HL-60 cells [7] = assay: Clonogenicity of HL-60 cells; type: cell-based, human
Description: as §2
Determination of Clonogenicity: Pelleted cells were rinsed extensively and prepared for soft-agar cloning. Cells were resuspended in cold PBS and seeded in 35-mm culture plates at a fixed density (400 cell/ml/well) in complete RPMI-1640 medium containing 20% fetal calf serum, 10% 5637-CM, and 0.3% Bacto agar. Cultures were mainatined for 10 to 12 days before formation of colonies (defined as groups of ≥50 cells) was scored.

MEK1 and MEK2 [8] = assay: Inhibition of Raf-mediated phosphorylation/activation of MEK1/2; type: biochemical
cancer cells = assay: Radiosensitization of cancer cells; type: cell-based; conditions: general statement
A431 cells [9] = test system: A431 cells
MEK1 and MEK2 [10] = conditions: general statement on known inhibitors; cited from earlier work
HL-60 cells [11] = assay: Taxol-mediated apoptosis of HL-60 cells
[12] = ara-C (10 μM) + PD98059 (2.5 μM), 6 hours

COc1cccc(-c2cc(=O)c3ccccc3o2)c1N [PD98059, 2'-amino-3'-methoxy-flavone]
enhancement ratio, co-treatment versus either radiation or PD98059 alone (A431 cells [1]; 5 μM PD98059 + 1 Gy): approximately threefold | percentage of cells exhibiting double stranded DNA breaks (A431 cells [1]; 5 μM PD98059 + 1 Gy, increased from ~4 to 15): 4-15% | amount of cell killing compared to either treatment alone (A431 cells [1]; 5 μM PD98059 + single 1 Gy exposure): tripled | potentiation of cell death (TUNEL) (A431 cells [1]; 5, 10 and 20 μM PD98059 + 1 Gy radiation): large potentiation of cell death | effect upon the basal levels of cell viability (A431 cells [1]; PD98059 alone, low concentrations, 24 hours): small non-significant detrimental effect | potentiation of cell death (propidium iodide staining of unfixed cells) (A431 cells [2]): large potentiation of cell death | proliferative capacity ([3H]thymidine incorporation) (A431 cells [3]): overall dose-dependent decrease in proliferative capacity | correlation of MAP kinase cascade inhibition with potentiation of cell death [4]: correlated with its dose-dependent ability to potentiate cell death | MAP kinase activity (p42/44 MAP kinase; 2.5 μM PD98059, with or without ara-C (10 μM), 3 hours): Suppression of MAP kinase activity | suppression of ara-C-related stimulation of MAP kinase (p42/44 MAP kinase; 5 μM PD98059 + ara-C): completely suppresses | basal MAP kinase activity (p42/44 MAP kinase; 1-100 μM PD98059, acute exposure): pronounced concentration-related decline | Emax (p42/44 MAP kinase; Homo sapiens, HL-60, 1-100 μM PD98059, read-out: maximal decrease of basal MAP kinase activity): ≥ 65% | EC50 (p42/44 MAP kinase; Homo sapiens, HL-60, PD98059, acute exposure, read-out: EC50, decline of basal MAP kinase activity): ≤ 5 µM | DNA strand breakage induced by ara-C (HL-60 cells [5]): substantially increased | potentiation of apoptotic activity of ara-C (HL-60 cells [6]; PD98059 + ara-C): Potentiation of ara-C-induced apoptosis; also recorded: highly effective | extent of apoptosis attributable to ara-C action (HL-60 cells [6]; [12]): dramatically increased | clonogenic potential (HL-60 cells [7]; [12]): practically nullified | clonogenic potential, single agent (HL-60 cells [7]; either agent alone): neither alone had this effect | inhibition of MEK1 and MEK2 (MEK1 and MEK2 [8]; general statement): all inhibit MEK1 and MEK2 | inhibition of Raf phosphorylation of MEK1 and MEK2 (MEK1 and MEK2 [8]; stated as demonstrated by the applicant): inhibiting the ability of Raf protein kinases to phosphorylate MEK1 and MEK2 | radiosensitization of cancer cells (cancer cells): all cause radiosensitization of cancer cells | cellular proliferation (MTT) (A431 cells [9]; 5, 10 or 20 μM PD98059 + 1 Gy): markedly decreased cellular proliferation | enhancement ratios (MTT) (A431 cells [9]; PD98059 + 1 Gy): at least threefold | proliferative rate (MTT) (A431 cells [9]; PD98059 + 1 Gy radiation, 4-8 days): Decreased proliferative rate | proliferative capacity versus either exposure or treatment alone (MTT) (A431 cells [9]; PD98059 + radiation, 4-8 days): large reduction in proliferative capacity | proliferative rate (MTT) (A431 cells [9]; PD98059 alone, 4-8 days): Decreased proliferative rate | mode of action at MEK1/2 (MEK1 and MEK2 [10]): bind to MEK1/2 and sterically prevent Raf from binding | cytotoxicity at 10 µM (HL-60 cells [11]; Homo sapiens, HL-60, 15 h, read-out: apoptotic cells, PD98059 alone): 6 to 7% | cell death, taxol plus PD98059 (HL-60 cells [11]; taxol 0.5 μM + PD98059 10 μM): 58%
